From ChEMBL document CHEMBL1146332, “Parallel solid synthesis of inhibitors of the essential cell division FtsZ enzyme as a new potential class of antibacterials” (Bioorg Med Chem, 2007)
pIC50: −log10 of the molar value. Calls of active or inactive are those of the source. No cut-off for these calls is given here.

Experiments:
Staphylococcus aureus = test: Antibacterial activity against Staphylococcus aureus ATCC 25923 at 20 g/L by disc diffusion method; assay type: functional; settings: for zone of inhibition at 20000 µg/mL: read-out: IZ
[1] = target: T1, Cell division protein FtsZ (Pseudomonas aeruginosa (strain ATCC 15692 / PAO1 / 1C / PRS 101 / LMG12228), UniProt P47204); test: Inhibition of Pseudomonas aeruginosa FtsZ GTPase activity by spectrophotometric assay
T1 sequence (P47204 whole entry): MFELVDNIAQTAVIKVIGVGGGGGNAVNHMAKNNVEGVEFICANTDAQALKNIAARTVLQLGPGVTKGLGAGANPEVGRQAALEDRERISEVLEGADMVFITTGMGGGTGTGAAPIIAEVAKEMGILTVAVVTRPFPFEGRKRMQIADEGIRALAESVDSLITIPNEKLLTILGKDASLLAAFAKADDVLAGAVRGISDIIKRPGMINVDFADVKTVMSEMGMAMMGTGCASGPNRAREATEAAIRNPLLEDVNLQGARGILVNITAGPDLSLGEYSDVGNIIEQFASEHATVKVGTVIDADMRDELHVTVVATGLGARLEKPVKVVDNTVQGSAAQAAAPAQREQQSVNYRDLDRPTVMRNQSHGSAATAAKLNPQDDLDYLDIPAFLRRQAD

Escherichia coli = test: Antibacterial activity against Escherichia coli ATCC 25922 by disc diffusion method; assay type: functional, organism-based

| Compound | Activity (Staphylococcus aureus) | pIC50 [1] | Activity (Escherichia coli) | zone of inhibition at 20000 µg/mL (Staphylococcus aureus) |
| --- | --- | --- | --- | --- |
| Nc1nc(Cl)c2ncn(C[C@H](NS(=O)(=O)c3ccccc3)C(=O)O)c2n1 | inactive | 2.92 | inactive | – |
| C=CCNC(=O)[C@H](Cn1cnc2c(Cl)nc(N)nc21)NS(=O)(=O)c1ccc(C)cc1 | inactive | 2.77 | inactive | – |
| Nc1nc(Cl)c2ncn(C[C@H](NC(=O)Cc3ccccc3)C(=O)O)c2n1 | inactive | 2.70 | inactive | – |
| Nc1nc(Cl)c2ncn(C[C@H](NC(=O)Nc3ccccc3)C(=O)O)c2n1 | – | 3.35 | inactive | 10 mm |
| C=CCNC(=O)[C@H](Cn1cnc2c(Cl)nc(N)nc21)NS(C)(=O)=O | – | 3.22 | inactive | 28 mm |
| CCCNC(=O)[C@H](Cn1cnc2c(Cl)nc(N)nc21)NS(C)(=O)=O | – | 3.15 | inactive | 15 mm |
| CCCNC(=O)[C@H](Cn1cnc2c(Cl)nc(N)nc21)NS(=O)(=O)c1ccc(C)cc1 | – | 2.59 | inactive | 11 mm |
| CCCNC(=O)[C@H](Cn1cnc2c(Cl)nc(N)nc21)NC(=O)N[C@H](C)c1ccccc1 | – | 2.74 | inactive | 11 mm |
| NC[C@H]1O[C@H](O[C@H]2[C@H](O)[C@@H](O[C@H]3O[C@H](CO)[C@@H](O)[C@H](N)[C@H]3O)[C@H](N)C[C@@H]2N)[C@H](O)[C@@H](O)[C@@H]1O | – | – | inactive | – |
| C=CCNC(=O)[C@H](Cn1cnc2c(Cl)nc(N)nc21)NC(=O)N[C@H](C)c1ccccc1 | inactive | 2.74 | inactive | – |
